Data on 21 molecules can be found in PubChem BioAssay AID330 (DTP/NCI, 2004).

Toxic doses and inconclusive results are not listed.

This assay relates to P388 leukemia ip, CD2F1 mice, survival T/C. The assay is described as follows: NCI In Vivo Anticancer Drug Screen. Data for tumor model P388 Leukemia (intraperitoneal) in CD2F1 (CDF1) mice. The settings on record: endpoint: median survival time, higher = longer survival. The method in brief:
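Mice carrying the transplanted tumor received test compound or vehicle. Survival was recorded in each group, and the value is the treated-group measurement divided by that of the vehicle-treated control group.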

Setting [1] is: dose: 50.0 mg/kg/injection, schedule: Q01DX009 (ip), vehicle: saline with Tween-80.
[2] abbreviates: dose: 100.0 mg/kg/injection, schedule: Q01DX009 (ip), vehicle: saline with Tween-80.
The mark [3] stands for this setting: dose: 50.0 mg/kg/injection, schedule: Q01DX009 (ip), vehicle: Klucel (hydroxypropylcellulose) (HPC).
The mark [4] stands for this setting: dose: 200.0 mg/kg/injection, schedule: Q01DX009 (ip), vehicle: saline with Tween-80.

Take `CC(=O)O[C@@H]1[C@H](C)[C@@H]2CC(=O)O[C@@H]3[C@H](OC(=O)C=C(C)C)[C@H]4C(C)=CC(=O)[C@@H](OC(C)=O)[C@]4(C)[C@H]4[C@@]1(O)OC[C@@]342`: the T/C reads like this: (dose: 1.25 mg/kg/injection, schedule: Q01DX009 (ip), vehicle: Klucel (hydroxypropylcellulose) (HPC)) 104 % of control; (dose: 2.5 mg/kg/injection, schedule: Q01DX009 (ip), vehicle: Klucel (hydroxypropylcellulose) (HPC)) 107 % of control; (dose: 5.0 mg/kg/injection, schedule: Q01DX009 (ip), vehicle: Klucel (hydroxypropylcellulose) (HPC)) 107 % of control; (dose: 10.0 mg/kg/injection, schedule: Q01DX009 (ip), vehicle: Klucel (hydroxypropylcellulose) (HPC)) 107 % of control.

As to `O=C(c1ccc(Cl)nc1)c1cccs1`, the T/C is 98 % of control (dose: 50.0 mg/kg/injection, schedule: Q01DX005 (ip), vehicle: distilled water + alcohol); 108 % of control (dose: 100.0 mg/kg/injection, schedule: Q01DX005 (ip), vehicle: distilled water + alcohol); 110 % of control (dose: 200.0 mg/kg/injection, schedule: Q01DX005 (ip), vehicle: distilled water + alcohol).

For the molecule `Nc1nc(Cl)c2[nH]cnc2n1`, the T/C is 108 % of control under setting [1]; 95 % of control (dose: 50.0 mg/kg/injection, schedule: Q04DX003 (ip), vehicle: saline with Tween-80); 99 % of control under setting [2]; 100 % of control (dose: 100.0 mg/kg/injection, schedule: Q04DX003 (ip), vehicle: saline with Tween-80); 100 % of control (dose: 200.0 mg/kg/injection, schedule: Q04DX003 (ip), vehicle: saline with Tween-80).

`COc1cc(N(CCCl)CCCl)c(OC)cc1/C=N\Nc1nncn1N`: the T/C runs as follows: (dose: 0.25 mg/kg/injection, schedule: Q01DX009 (ip), vehicle: saline) 95 % of control; (dose: 0.5 mg/kg/injection, schedule: Q01DX009 (ip), vehicle: saline) 104 % of control; (dose: 0.63 mg/kg/injection, schedule: Q04DX003 (ip), vehicle: saline) 100 % of control; (dose: 1.25 mg/kg/injection, schedule: Q01DX009 (ip), vehicle: saline) 154 % of control; (dose: 1.25 mg/kg/injection, schedule: Q04DX003 (ip), vehicle: saline) 100 % of control; (dose: 2.5 mg/kg/injection, schedule: Q01DX009 (ip), vehicle: saline) 154 % of control. The T/C is, setting by setting: (dose: 2.5 mg/kg/injection, schedule: Q04DX003 (ip), vehicle: saline) 107 % of control; (dose: 5.0 mg/kg/injection, schedule: Q01DX009 (ip), vehicle: saline) 186 % of control; (dose: 5.0 mg/kg/injection, schedule: Q04DX003 (ip), vehicle: saline) 123 % of control.

Turning to `CC(C)CC1N=C(N(C)N=O)OP1(=O)NNc1ncccn1` (stereo not drawn), the T/C runs as follows: (dose: 60.0 mg/kg/injection, schedule: Q01DX005 (ip), vehicle: saline) 97 % of control; (dose: 120.0 mg/kg/injection, schedule: Q01DX005 (ip), vehicle: saline) 102 % of control; (dose: 240.0 mg/kg/injection, schedule: Q01DX005 (ip), vehicle: saline) 99 % of control.

In the case of `Cc1cc(C)nc(NCCCCNc2nc(C)cc(C)n2)n1`, the T/C runs as follows: (dose: 50.0 mg/kg/injection, schedule: Q01DX005 (ip), vehicle: Klucel (hydroxypropylcellulose) (HPC)) 92 % of control; (dose: 100.0 mg/kg/injection, schedule: Q01DX005 (ip), vehicle: Klucel (hydroxypropylcellulose) (HPC)) 105 % of control; (dose: 200.0 mg/kg/injection, schedule: Q01DX005 (ip), vehicle: Klucel (hydroxypropylcellulose) (HPC)) 100 % of control.

In the case of `O=C1/C(=C(\Cl)c2ccccc2)Cc2ccccc21`, the T/C reads like this: (dose: 75.0 mg/kg/injection, schedule: Q01DX001 (ip), vehicle: saline sonified) 100 % of control; (dose: 150.0 mg/kg/injection, schedule: Q01DX001 (ip), vehicle: saline sonified) 95 % of control; (dose: 300.0 mg/kg/injection, schedule: Q01DX001 (ip), vehicle: saline sonified) 118 % of control.

For the molecule `CC1(C)CC(O)(C(Cl)c2ccccc2)C(=O)c2ccccc21` (stereo not drawn), the T/C is, setting by setting: (dose: 25.0 mg/kg/injection, schedule: Q01DX009 (ip), vehicle: Klucel (hydroxypropylcellulose) (HPC)) 96 % of control; under setting [3], 93 % of control; (dose: 100.0 mg/kg/injection, schedule: Q01DX009 (ip), vehicle: Klucel (hydroxypropylcellulose) (HPC)) 93 % of control; (dose: 200.0 mg/kg/injection, schedule: Q01DX009 (ip), vehicle: Klucel (hydroxypropylcellulose) (HPC)) 94 % of control; (dose: 400.0 mg/kg/injection, schedule: Q01DX009 (ip), vehicle: Klucel (hydroxypropylcellulose) (HPC)) 86 % of control.

Consider `CC1=C[P+](c2ccccc2)(c2ccccc2)c2ccccc2O1`, for which the T/C by setting is: (dose: 1.56 mg/kg/injection, schedule: Q01DX005 (ip), vehicle: Klucel (hydroxypropylcellulose) (HPC)) 96 % of control; (dose: 3.12 mg/kg/injection, schedule: Q01DX005 (ip), vehicle: Klucel (hydroxypropylcellulose) (HPC)) 109 % of control; (dose: 6.25 mg/kg/injection, schedule: Q01DX005 (ip), vehicle: Klucel (hydroxypropylcellulose) (HPC)) 110 % of control.

Turning to `CNC(=O)CCC(NS(=O)(=O)c1ccc(NC(C)=O)cc1)C(=O)O` (stereo not drawn), the T/C (dose: 100.0 mg/kg/injection, schedule: Q01DX001 (ip), vehicle: Klucel (hydroxypropylcellulose) (HPC)) was 105 % of control; the T/C (dose: 200.0 mg/kg/injection, schedule: Q01DX001 (ip), vehicle: Klucel (hydroxypropylcellulose) (HPC)) is 98 % of control; the T/C (dose: 400.0 mg/kg/injection, schedule: Q01DX001 (ip), vehicle: Klucel (hydroxypropylcellulose) (HPC)) is 100 % of control.

Consider `Cc1c(C)c(C)c2c(c1C)C(=O)c1c3c(c4c(c1C2=O)CCCC4)CCCC3`, for which the T/C runs as follows: (dose: 25.0 mg/kg/injection, schedule: Q01DX009 (ip), vehicle: saline with Tween-80) 108 % of control; under setting [1], 103 % of control; under setting [2], 99 % of control.

Turning to `CP1(=O)CC(=O)CCCCC(=O)C1`, the T/C reads like this: (dose: 6.25 mg/kg/injection, schedule: Q01DX009 (ip), vehicle: saline) 104 % of control; (dose: 12.5 mg/kg/injection, schedule: Q01DX009 (ip), vehicle: saline) 114 % of control; (dose: 25.0 mg/kg/injection, schedule: Q01DX009 (ip), vehicle: saline) 104 % of control; under setting [2], 100 % of control; under setting [4], 98 % of control.

For the molecule `CSc1cccc(NC(=O)Nc2onc(C)c2C)c1`, under setting [3], the T/C was 91 % of control.

With `c1ccc2c(Cc3nn[nH]n3)noc2c1`, the T/C under setting [1] is 109 % of control, the T/C under setting [2] is 107 % of control and the T/C under setting [4] was 100 % of control.

Take `S=P(OC1CC2CCC1C2)(c1ccccc1)c1ccccc1` (stereo not drawn): the T/C reads like this: under setting [1], 100 % of control; under setting [2], 103 % of control; under setting [4], 106 % of control.

Take `C[n+]1c(C[n+]2ccccc2)ccc2ccccc21`: the T/C by setting is: (dose: 50.0 mg/kg/injection, schedule: Q01DX005 (ip), vehicle: saline) 105 % of control; (dose: 100.0 mg/kg/injection, schedule: Q01DX005 (ip), vehicle: saline) 106 % of control.

With `CCN(CC)Cc1cc(C)c(O)c(N=Nc2ccc([N+](=O)[O-])cc2)c1C`, the T/C runs as follows: (dose: 100.0 mg/kg/injection, schedule: Q04DX002 (ip), vehicle: saline with Tween-80) 101 % of control; (dose: 200.0 mg/kg/injection, schedule: Q04DX002 (ip), vehicle: saline with Tween-80) 99 % of control; (dose: 400.0 mg/kg/injection, schedule: Q04DX002 (ip), vehicle: saline with Tween-80) 97 % of control.

With `O=C1CCCC12CCCC2=O`, the T/C is, setting by setting: under setting [1], 103 % of control; under setting [2], 100 % of control; under setting [4], 109 % of control.

In the case of `Brc1ccc(/C=C/c2ccnnc2)cc1`, the T/C (dose: 50.0 mg/kg/injection, schedule: Q01DX009 (ip), vehicle: saline) is 93 % of control; the T/C (dose: 100.0 mg/kg/injection, schedule: Q01DX009 (ip), vehicle: saline) was 94 % of control; the T/C (dose: 200.0 mg/kg/injection, schedule: Q01DX009 (ip), vehicle: saline) was 100 % of control.

`C=C(C)CBr`: the T/C by setting is: (dose: 60.0 mg/kg/injection, schedule: Q01DX005 (ip), vehicle: saline with Tween-80) 100 % of control; (dose: 120.0 mg/kg/injection, schedule: Q01DX005 (ip), vehicle: saline with Tween-80) 100 % of control; (dose: 240.0 mg/kg/injection, schedule: Q01DX005 (ip), vehicle: saline with Tween-80) 100 % of control.

`COC1/C=C/OC2(C)Oc3c(C)c(O)c4c(O)c(c(/C=N/N(C)c5nc6c(N)ncnc6n5C5OC(CO)C(O)C5O)c(O)c4c3C2=O)NC(=O)C(C)=C/C=C/C(C)C(O)C(C)C(O)C(C)C(OC(C)=O)C1C` (stereo not drawn): the T/C runs as follows: under setting [1], 101 % of control; under setting [2], 97 % of control; under setting [4], 101 % of control.
